Activity calls are given as the source filed them. No cut-off for these calls is given here.
Assays:
NCI-H460 = assay: Antiproliferative activity against human NCI-H460 cells after 72 hrs; type: functional, cell-based; conditions: NCI-H460, 72 h
[1] = Partition coefficient, log P of the compound; type: physicochemical; conditions: octanol/water
[2] = Effect on cell proliferation of Sprague-Dawley rat smooth muscle cells after 72 hrs
[3] = Binding affinity to supercoiled pRYG DNA by DNA intercalating assay

| Structure (SMILES) | IC50 (NCI-H460) | logP [1] | Activity [3] | IC50 [2] |
| --- | --- | --- | --- | --- |
| CCN(CC)CCN1C(=O)C(c2cccs2)=C(c2cccn2C)C1=O | 9 µM | 1.7 | inactive | 12.1 µM |
| CCN(CC)CCN1C(=O)C(c2c[nH]c3ccccc23)=C(c2cccn2C)C1=O | 8.5 µM | 2.9 | – | 3.6 µM |
| CN(C)CCN1C(=O)c2cccc3cc(N)cc(c23)C1=O [AMONAFIDE] | 7.8 µM | 1.6 | – | 0.48 µM |
| CCN(CC)CCN1C(=O)C(c2cccs2)=C(c2c[nH]c3ccccc23)C1=O | 1.9 µM | 3.8 | – | 1 µM |
| CCN(CC)CCN1C(=O)C(c2ccco2)=C(c2cccs2)C1=O | 8.7 µM | 2.1 | – | 2.1 µM |
| CCN(CC)CCN1C(=O)c2c(c3sccc3c3ccccc23)C1=O | 7.1 µM | 3.9 | – | 13.9 µM |
| CCN(CC)CCN1C(=O)C(c2cccs2)=C(c2cccs2)C1=O | 8.9 µM | 2.9 | inactive | 3.9 µM |

More lines, main results first:

| IC50 (NCI-H460) | logP [1] | Activity [3] | Structure (SMILES) | IC50 [2] |
| --- | --- | --- | --- | --- |
| 0.84 µM | 2.5 | inactive | CCN(CC)CCN1C(=O)c2c(c3c(ccn3C)c3ccsc23)C1=O | 0.08 µM |
| 8.6 µM | 1.7 | – | CCN(CC)CCN1C(=O)c2c(c3c(ccn3C)c3ccoc23)C1=O | 5.3 µM |
| 4.8 µM | 3.8 | inactive | CCN(CC)CCN1C(=O)c2c(c3sccc3c3ccsc23)C1=O | 0.53 µM |
| 8.4 µM | 3.8 | – | CCN(CC)CCN1C(=O)C(c2cc3ccccc3[nH]2)=C(c2cccs2)C1=O | 5.3 µM |
| > 30 µM | 0.9 | – | CCN(CC)CCN1C(=O)C(c2ccco2)=C(c2cccn2C)C1=O | – |
| 0.9 µM | 4.1 | – | CCN(CC)CCN1C(=O)c2c(c3ccccc3c3ccccc23)C1=O | 0.68 µM |
| – | – | Active | O=C1c2cccc3cccc(c23)C(=O)N1CCNCCCNCCN1C(=O)c2cccc3cccc(c23)C1=O | – |
| > 30 µM | 3 | – | CCN(CC)CCN1C(=O)c2c(c3sccc3c3ccoc23)C1=O | > 30 µM |

From ChEMBL document CHEMBL1144015, “Antiproliferative effects on human tumor cells and rat aortic smooth muscular cells of 2,3-heteroarylmaleimides and heterofused imides” (Bioorg Med Chem, 2008)
